Results: patent publication US20120129179A1, “SCN5A SPLICING FACTORS AND SPLICE VARIANTS FOR USE IN DIAGNOSTIC AND PROGNOSTIC METHODS” (THE BOARD OF TRUSTEES OF THE UNIVERSITY OF ILLINOIS, priority 2009, published 2012)

How the values were obtained:
RBM25 [1] = target: RBM25 (Homo sapiens, UniProt P49756); test: Gel mobility shift assay; type: binding; conditions: 0.2 nM RNA, variable amounts of protein, 30 min at 4° C.
Experimental: (§1) Gel mobility shift assays: The biotinylated wild-type ([…]) and mutant ([…]) RNA substrates (SEQ ID NOs: 32 and 33, respectively) were synthesized by Invitrogen. Binding of biotinylated RNA to RBM25 was achieved by incubating 0.2 nM RNA and variable amounts of protein for 30 min at 4° C. in 20 μL of binding buffer (10 mM Tris-HCl, 10 mM HEPES, 100 mM NaCl, 0.1% Triton X-100, 2 mM MgCl2, 1.5 mM dithiothreitol (DTT) pH 7.5, 7% glycerol). For the competition assays, a molar excess of unlabeled competitor RNAs at various fold levels was added to the pre-incubated reaction mixture. Samples were fractionated in a native 5% polyacrylamide gel, transferred to Hybond-N+nylon membrane (Amersham Biosciences), and detected with a LightShift chemiluminescent electrophoretic mobility shift assay kit (Pierce) by following the manufacturer's protocol.
(§2) Gel mobility shift assays were performed as described previously with modification (Shang et al., Am. J. Physiol. Cell. Physiol., 292:C886-95, 2007, the disclosure of which is incorporated herein by reference in its entirety.). The biotinylated wild-type ([…]) and mutant ([…]) RNA substrates (SEQ ID NOs: 32 and 33, respectively) were synthesized. Binding of biotinylated RNA to RBM25 was achieved by incubating 0.2 nM RNA and variable amounts of protein for 30 min at 4° C. in 20 μL binding buffer. […]

SCN5A variant E28C = test: RT-PCR of SCN5A variant E28C; type: cell-based, human; conditions: Ang II treatment
Experimental: (§3) Real-Time PCR quantification: Total RNA was isolated from cultured cells using the Qiagen RNeasy Mini Kit (Valencia, Calif.). Total RNA from human ventricles was isolated using the RNeasy Lipid Tissue Mini Kit (Qiagen). Reverse transcription was carried out at 42° C. for 1 h with Powerscript reverse transcriptase (Roche). β-Actin was used as a reference when making quantitative comparison.
(§4) Changes in hLuc7A and RBM25 correlated with SCN5A E28C and E28D variant abundances. Under hypoxia, the expression of SCN5A variants E28C and E28D were increased by 373.5±5.7% and 636.2±7.6%, respectively (p<0.05), while the expressions of the full length SCN5A transcript was decreased by 64.6±4.9% (p<0.05). With Ang II treatment, the expressions of the variants were increased by 291.4±5.2% and 433.7±6.5% for E28C and E28D, respectively (p<0.05), while the expression of the full length SCN5A transcipt was decreased by 78.9±5.4% (p<0.05).
(§5) The siRNA knockdown efficiency was estimated by both RT-PCR and Western blot and was not less than 50%. The expressions of SCN5A and the variants E28C and E28D were measured by RT-PCR in all experiment groups at time points of maximal siRNA effect.

RBM25 [2] = test: Western blot of RBM25 in Jurkat cells; type: cell-based, human; conditions: Ang II 100 nmol/L, vs control group
From the text: (§6) Western blot analysis: The Mini-PROTEAN® Tetra Electrophoresis System from BioRad was used for Western blot analysis. Anti-Nav1.5 antibody, recognizing all channel variants, was provided by Dr. Peter Mohler (University of Iowa, Iowa City, Iowa). Anti-RBM25 antibody was provided by Dr. Huang (Dana-Farber Cancer Institute, Harvard, Boston, Mass.). Anti-PERK and hLuc7A antibodies were purchased from R&D Systems (Minneapolis, Minn.) and Millipore, (Billerica, Mass.).
(§7) The upregulation of splicing factors RBM25 and hLuc7A in Jurkat cells was further confirmed by Western blot. The Jurkat cells were divided into three experiment groups: normoxia, hypoxia-treated (1% O2), and Ang II-treated (100 nmol/L). The expressions of RBM25 and hLuc7A were analyzed by Western blot at three time points (12 h, 24 h, and 48 h) for hypoxia-treated group and at four time points (24 h, 48 h, 72 h, and 96 h) for Ang II-treated group. […] The density of hLuc7A was increased by 242.3±9.5%, 236.1±8.4% and 268.8±9.8% in hypoxia-treated group at time points 12 h, 24 h and 48 h, respectively, and was increased by 256.3±9.1%, 246.5±8.6%, 279.7±9.3% and 283.6±9.9% in Ang II-treated group at time points 24 h, 48 h, 72 h and 96 h, respectively (p<0.05).

hLuc7A [3] = test: Western blot of hLuc7A in Jurkat cells; type: cell-based, human; conditions: Ang II 100 nmol/L, vs control group
From the text: as §6, §7

sXBP1 = test: RT-PCR of sXBP1 expression; type: cell-based, human; conditions: Ang II-treated
Experimental: as §3
(§8) Hypoxia and AngII were used to increase abnormal SCN5A splicing. The expressions of PERK and sXBP1 were measured by RT-PCR. […] To test if this upregulation of one arm of the UPR was mediated by SCN5A mRNA variants, exogenous E28C and E28D were introduced. The Jurkat cells were divided into four experiment groups: normal control, empty vector control, variant E28C overexpressioned cells, and variant E28D overexpressioned cells. The expression of PERK was measures by RT-PCR in each group at the time point 48 h. […] The upregulation of PERK in Jurkat cells was further confirmed by Western blot.

PERK [4] = test: RT-PCR of PERK expression; type: cell-based, human; conditions: Ang II-treated, 48 h
Experimental: as §3, §8

PERK [5] = test: Western blot of PERK in Jurkat cells; type: cell-based, human; conditions: Ang II-treated, vs control group
From the text: as §6, §8

[6] = system: major UPR components (PERK, calnexin, CHOP); test: Induction of major UPR components in hESC-CMs; type: cell-based, human; conditions: 100 nmol/L Ang II
From the text: The correlation of expression changes among PERK, major human embryonic stem cell-derived cardiomyocytes (hESC-CMs). […] E28C and E28D constructs were transduced to overexpress the truncated proteins.
Finally, downregualtion of PERK prevented the loss of full-length SCN5A mRNA abundance with these stimuli.

hLuc7A [7] = test: Real-time RT-PCR of hLuc7A mRNA in Jurkat cells and H9 hESC-cardiomyocytes; type: cell-based, human; conditions: Ang II-treated (100 nmol/L)
Experimental: (§9) Cell culture assays: Jurkat T cell clones E6.1 (ATCC, Manassas, Va.) were cultured at 37° C. and 5% CO2 in RPMI 1640 medium supplemented with 10% heat inactivated fetal calf serum, 4 mM glutamine, 75 units/mL streptomycin and 100 units/mL penicillin. WA09 (H9) human undifferentiated ESCs were obtained through the National Stem Cell Bank and maintained on irradiated mouse embryonic fibroblasts at 37° C. with 5% CO2. The culture medium consisted of DMEM/F12 (Invitrogen, Carlsbad, Calif.) supplemented with 15% knockout serum, 1% non-essential amino acids, 1 mmol/L L-glutamine, 0.1 mmol/L β-mercaptoethanol, and basic fibroblast growth factor of 20 ng/mL.
as §3
(§10) Because AngII and hypoxia are common in heart failure, we investigated whether these two conditions could influence RBM25 and hLuc7A levels. […] The Jurkat cells and H9 hESC-CMs were divided into three experiment groups: normoxia, hypoxia-treated (1% O2), and Ang II-treated (100 nmol/L). […]

RBM25 [8] = test: Real-time RT-PCR of RBM25 mRNA in Jurkat cells and H9 hESC-cardiomyocytes; type: cell-based, human; conditions: Ang II-treated (100 nmol/L)
Experimental: as §9, §3, §10

SCN5A variant E28D = test: RT-PCR of SCN5A variant E28D; type: cell-based, human; conditions: Ang II treatment
Experimental: as §3, §4, §5

[9] = system: full length SCN5A transcript; test: RT-PCR of full length SCN5A transcript; type: cell-based, human; conditions: Ang II treatment
Experimental: as §3, §4
Hypoxia and AngII were used to increase abnormal SCN5A splicing. The expressions of PERK and sXBP1 were measured by RT-PCR. […] To test if this upregulation of one arm of the UPR was mediated by SCN5A mRNA variants, exogenous E28C and E28D were introduced. The Jurkat cells were divided into four experiment groups: normal control, empty vector control, variant E28C overexpressioned cells, and variant E28D overexpressioned cells. […]

RBM25 [10] = target: T1, RBM25 (UniProt P49756 SEQ:1-843); test: EMSA; concentration-dependent; 0.2 nM RNA, 10 mM Tris-HCl, 10 mM HEPES, 100 mM NaCl, 2 mM MgCl2, pH 7.5, 4 C; unlabeled competitor assay also run; conditions: label: biotin
Experimental: as §1, with “MgCl₂,” for “MgCl2,”
as §2

RBM25 [11] = target: T1, RBM25; test: EMSA; mutated canonical site; 0.2 nM RNA, 100 mM NaCl, 2 mM MgCl2, pH 7.5, 4 C; conditions: label: biotin
Experimental: as §1, with “MgCl₂,” for “MgCl2,”
as §2

T1 sequence (P49756 whole entry): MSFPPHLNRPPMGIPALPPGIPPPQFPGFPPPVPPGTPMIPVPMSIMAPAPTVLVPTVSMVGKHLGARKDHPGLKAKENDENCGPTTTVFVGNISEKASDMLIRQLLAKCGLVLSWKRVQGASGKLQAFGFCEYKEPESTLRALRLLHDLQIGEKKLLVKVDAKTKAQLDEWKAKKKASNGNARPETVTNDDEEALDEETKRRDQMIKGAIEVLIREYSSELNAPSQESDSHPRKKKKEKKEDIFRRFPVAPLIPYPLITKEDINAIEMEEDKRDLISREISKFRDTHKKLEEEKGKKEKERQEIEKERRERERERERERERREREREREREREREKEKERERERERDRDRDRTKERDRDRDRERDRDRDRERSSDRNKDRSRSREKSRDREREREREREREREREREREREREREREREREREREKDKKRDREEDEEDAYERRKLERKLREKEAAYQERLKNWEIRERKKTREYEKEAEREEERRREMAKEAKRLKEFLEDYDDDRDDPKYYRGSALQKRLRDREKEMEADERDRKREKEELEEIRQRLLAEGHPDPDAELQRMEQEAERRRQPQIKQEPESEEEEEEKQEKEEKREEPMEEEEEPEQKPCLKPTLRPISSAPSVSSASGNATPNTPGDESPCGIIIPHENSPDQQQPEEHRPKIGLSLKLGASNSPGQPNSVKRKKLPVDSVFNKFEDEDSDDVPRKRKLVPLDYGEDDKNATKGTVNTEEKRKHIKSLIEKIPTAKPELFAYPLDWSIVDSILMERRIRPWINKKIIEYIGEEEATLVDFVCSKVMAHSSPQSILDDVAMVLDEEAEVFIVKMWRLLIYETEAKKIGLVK
Chain of RBM25 (Homo sapiens, UniProt P49756) (P49756 whole entry): as above

## CAGCAGGCGGGCAGCGGCCU (RNA, backbone not given here; biotinylated RNA) [wild-type RNA substrate]
RBM25 [1]
  binding of RBM25 to biotinylated RNA substrate: bound the wild-type SCN5A sequence in a concentration-dependent manner

## CAGCAGGUUAGAGGCGGCCU (RNA, backbone not given here; biotinylated RNA) [mutant RNA substrate]
RBM25 [1]
  binding of RBM25 to biotinylated RNA substrate: inability of RBM25 to bind

## angiotensin II (DRVYIHPF; Angiotensin-2; UniProt P01019 25-32, looked up) [Ang II, angiotensin II, used at 100 nmol/L to treat Jurkat cells and hESC-CMs]
SCN5A variant E28C
  expression of SCN5A variant E28C increased by: 291.4±5.2%
RBM25 [2]; 24 h
  density of RBM25 increased by: 209.5±8.8%
RBM25 [2]; 48 h
  density of RBM25 increased by: 212.6±9.7%
RBM25 [2]; 72 h
  density of RBM25 increased by: 181.3±8.3%
RBM25 [2]; 96 h
  density of RBM25 increased by: 198.8±8.7%
hLuc7A [3]; 24 h
  density of hLuc7A increased by: 256.3±9.1%
hLuc7A [3]; 48 h
  density of hLuc7A increased by: 246.5±8.6%
hLuc7A [3]; 72 h
  density of hLuc7A increased by: 279.7±9.3%
hLuc7A [3]; 96 h
  density of hLuc7A increased by: 283.6±9.9%
sXBP1
  expression upregulation of sXBP1: no expression upregulation
PERK [4]
  expression of PERK increased by: 14.2±0.6 fold
PERK [5]
  density of PERK increased by: 383.2±10.7%
[6]
  induction of major UPR components (PERK, calnexin, CHOP): could induce major UPR components
hLuc7A [7]; ES cells (H9 hESC-CMs)
  expression of hLuc7A increased by: 181.2±6.7%
hLuc7A [7]; Jurkat cells
  expression of hLuc7A increased by: 187.3±7.9%
RBM25 [8]; ES cells (H9 hESC-CMs)
  expression of RBM25 increased by: 42.1±4.7%
RBM25 [8]; Jurkat cells
  expression of RBM25 increased by: 50.8±4.9%
SCN5A variant E28D
  expression of SCN5A variant E28D increased by: 433.7±6.5%
[9]
  expression of the full length SCN5A transcript decreased by: 78.9±5.4%

## CAGCAGGCGGGCAGCGGCCU (ssRNA) [SCN5A exon 28 wild-type RNA]
RBM25 [10]
  binding result: binds

## CAGCAGGUUAGAGGCGGCCU (ssRNA) [SCN5A exon 28 mutant RNA]
RBM25 [11]
  binding result: no binding
